{"source": "patent US20100266712A1", "about": "“Prevention of Acute Kidney Injury” (Austin Health, priority 2007, published 2010)", "key": {"[1]": {"test_system": "high-risk cardiac surgical patients undergoing cardiopulmonary bypass", "procedure": "A double-blind, randomised, placebo controlled trial of the effect of sodium bicarbonate on postoperative renal function and oxidative stress in subjects undergoing elective cardiopulmonary bypass surgery was conducted.\nThe Human Research Ethics Committee of the Austin Hospital approved the trial and the Therapeutic Goods Administration of the Australian Government, Department of Health and Ageing approved the use of sodium bicarbonate for this indication. Written informed consent was obtained from each patient. Patients were identified in surgical pre-admission clinics and on hospital wards. Patients who were enrolled were at high risk of post-operative AKI and were scheduled for elective cardiac surgery necessitating the use of CPB at a university tertiary referral hospital (Austin Hospital) and a co-located large private hospital (Warringal Hospital). Those considered at high risk for post-operative AKI, defined as fulfilling one or more pre-defined inclusion criteria and no exclusion criteria, were considered eligible. Patients at particular risk of post-bypass renal injury were defined as having at least one of the following: (a) age >70; (b) preoperative creatinine […]; (c) New York Heart Association symptom severity class 3 or 4; (d) valve surgery; (e) insulin dependent diabetes mellitus; or (f) redo surgery.\n(§1) Body weight adjusted dose of study medication was achieved by infusion of 154 mEq/L of sodium bicarbonate (Pfizer, Bentley, WA, Australia) or sodium chloride (Astra Zeneca, North Ryde, NSW, Australia) diluted in 5% dextrose (Baxter, Sydney, NSW, Australia) and H2O at an infusion rate of 3 mL kg^−1 h^−1 for 1 hour immediately after the induction of anesthesia, prior to the first surgical incision followed by continuous infusion at an infusion rate of 1 mL kg^−1 n^−1 over 23 hours. Sodium bicarbonate or sodium chloride was administered at a dose of 0.45 mEq/kg body weight over 1 hour followed by continuous intravenous infusion of 0.15 mEq/kg/hr over 23 hours (total dose of 4 mEq/kg over 24 hours).\nThe hospital pharmacy clinical trials coordinator used a Microsoft Excel-based (Microsoft Corp. Redmond, Wash., USA) random number generator to create the randomization list using a permuted block strategy with blocks of six. Infusion bags were each delivered in separate shrink-wrapped black plastic bags that were identical in appearance. Allocation concealment to patients, anesthesiologists, cardiac surgeons, intensive care specialists, bedside nurses and investigators (multiple blind) was ensured by central randomization through the Department of Pharmacy at the Austin Hospital.\nThe primary study outcome measure was the number of patients who developed post-operative acute kidney injury. This was defined as an increase in plasma creatinine concentration greater than 0.5 mg/dL (44 μmol/L) or greater than 25% from baseline to peak value at any time within the first five post-operative days. This definition is identical to that used in a recent large randomized controlled trial of cardiac surgery-associated AKI.\nThe renal secondary outcomes for this study were changes in plasma creatinine concentration within the first five post-operative days and in urinary neutrophil gelatinase-associated lipocalin (NGAL) concentration within the first 24 hours post-operatively. Creatinine was sampled daily and NGAL was sampled prior to induction of anesthesia, at 6 hours and at 24 hours after commencement of CPB. Creatinine was measured using the modified Jaffé method and NGAL as recently described (Mishra et al, 2005).\nAll data were analyzed according to the intention-to-treat principle. Continuous data were tested for normal distribution using histograms. Between-group comparisons for continuous data were performed with the use of the t test or the Mann-Whitney U test and for categorical data with the use of Fisher exact test or chi-square test where appropriate."}, "[2]": {"test_system": "high-risk cardiac surgical patients undergoing cardiopulmonary bypass", "procedure": "as §1\nAdditional secondary outcomes included changes in acid-base status, clinical outcomes such as need for renal replacement therapy, duration of ventilation, length of intensive care unit and hospital stay, and adverse events.\n(§2) All data were analyzed according to the intention-to-treat principle. Continuous data were tested for normal distribution using histograms. Between-group comparisons for continuous data were performed with the use of the t test or the Mann-Whitney U test and for categorical data with the use of Fisher exact test or chi-square test where appropriate. All tests were 2-tailed and a P value <0.05 was taken to indicate statistical significance. Values were reported as means with standard error of the mean (SEM) and mean difference or odds ratio (OR) with 95% confidence interval (95% CI) estimate as appropriate.", "remark": "listed apart in the source"}, "[3]": {"test_system": "high-risk cardiac surgical patients undergoing cardiopulmonary bypass", "procedure": "as §1\nSpecific adverse events targeted for detection included the incidence of hypernatremia ([Na^+]>150 mEq/L), hypokalemia ([K^+]<3.5 mEq/L), alkalemia (pH>7.50), post-operative atrial fibrillation and other post-operative arrhythmias (supraventricular arrhythmias, ventricular tachycardia and ventricular fibrillation) during study treatment.\nas §2", "remark": "listed apart in the source"}, "[4]": {"details": "from before to 24 hours after commencement of study infusion, N = 50"}, "[5]": {"details": "sodium bicarbonate vs sodium chloride"}, "[6]": {"details": "sodium bicarbonate vs sodium chloride, P<0.001"}}}
{"smiles": "O=C([O-])O.[Na+]", "note": "[sodium bicarbonate]", "values": [{"measurement": "increase in urinary NGAL concentration", "setting": "[1]; baseline to peak within first 24 hours post-operatively, compared to sodium chloride, P=0.009, FIG. 1B", "value": "attenuated"}, {"measurement": "relative increase in plasma creatinine", "setting": "[1]; baseline to peak within first five post-operative days, mean ± SEM, P=0.01 vs sodium chloride", "value": "28.5±6.5", "unit": "%"}, {"measurement": "absolute increase in plasma creatinine concentration", "setting": "[1]; compared to sodium chloride patients, P=0.01, FIG. 1A", "value": "less"}, {"measurement": "patients with a plasma creatinine increase greater than 50% from baseline to peak value", "setting": "[1]; patients/N, control 15/50", "value": "8/50"}, {"measurement": "patients who developed post-operative AKI", "setting": "[1]; patients/N, plasma creatinine increase >0.5 mg/dL (44 μmol/L) or >25% from baseline to peak within first five post-operative days, 4 mEq/kg i.v. over 24 hours", "value": "16/50"}, {"measurement": "odds ratio for post-operative AKI", "setting": "[1]; vs. sodium chloride control group (26/50), 95% CI 0.19-0.98, P=0.04", "value": 0.43}, {"measurement": "odds ratio for plasma creatinine increase greater than 50%", "setting": "[1]; vs. sodium chloride control, 95% CI 0.17-1.17, P=0.10", "value": 0.44}, {"measurement": "absolute risk reduction for AKI", "setting": "[1]; vs. sodium chloride control, 95% CI 1.1-39.0%", "value": 20, "unit": "%"}, {"measurement": "urine pH", "setting": "[2]; 6 and 24 hours after commencement of study drug infusion, P<0.001 vs control, FIG. 1C", "value": "induced urinary alkalinization"}, {"measurement": "Length of stay in hospital, mean (SEM)", "setting": "[2]; N = 50, P=0.60", "value": "10.4 (1.0) days"}, {"measurement": "Length of ventilation, mean (SEM)", "setting": "[2]; N = 50, P=0.83", "value": "1657 (299) min"}, {"measurement": "Length of stay in intensive care unit, mean (SEM)", "setting": "[2]; N = 50, P=0.96", "value": "73.8 (14.0) hrs"}, {"measurement": "Hospital deaths", "setting": "[2]; N = 50, P>0.99", "value": "1 (2) no. (%)"}, {"measurement": "Renal replacement therapy", "setting": "[2]; N = 50, P>0.99", "value": "2 (4) no. (%)"}, {"measurement": "Change in plasma base excess, mean (SEM)", "setting": "[2]; [4]", "value": "3.8 (0.5)"}, {"measurement": "Change in plasma bicarbonate, mean (SEM)", "setting": "[2]; [4]", "value": "3.7 (0.5) mEq/L"}, {"measurement": "Change in plasma pH, mean (SEM)", "setting": "[2]; [4]", "value": "0.04 (0.01)"}, {"measurement": "Length of stay in hospital, Mean Difference", "setting": "[2]; [5]", "value": -0.8, "unit": "days"}, {"measurement": "Length of stay in intensive care unit, Mean Difference", "setting": "[2]; [5]", "value": -1.0, "unit": "h"}, {"measurement": "Length of ventilation, Mean Difference", "setting": "[2]; [5]", "value": -99, "unit": "min"}, {"measurement": "Change in plasma base excess, Mean Difference", "setting": "[2]; [6]", "value": 6.0}, {"measurement": "Change in plasma bicarbonate, Mean Difference", "setting": "[2]; [6]", "value": 5.2, "unit": "mEq/L"}, {"measurement": "Change in plasma pH, Mean Difference", "setting": "[2]; [6]", "value": 0.07}, {"measurement": "patients with plasma sodium concentration >150 mEq/L (hypernatremia)", "setting": "[3]; during study treatment, both groups", "value": "No patient"}, {"measurement": "patients with an episode of supraventricular tachycardia", "setting": "[3]; during study treatment, of 50 patients", "value": "One"}, {"measurement": "patients with a pH level greater than 7.50 (alkalemia)", "setting": "[3]; during study treatment, of 50 patients, P=0.24", "value": "three"}, {"measurement": "incidence of new-onset atrial fibrillation", "setting": "[3]; during treatment, patients/N, control 4/50, P>0.99", "value": "5/50"}, {"measurement": "patients with plasma potassium <3.5 mEq/L (hypokalemia)", "setting": "[3]; patients/N, control 1/50, P=0.20", "value": "5/50"}]}
